Experimental findings from patent US5281264A, “Salt-forming type dye and ink composition” (Orient Chemical Industries, Ltd., priority 1992, dated 1994) are described below.

The data set can be described thus: Visible absorption of salt-forming type dyes (λmax). It is filed as physicochemical. The note with it: spectra of dyes 1 and 4 in methanol solvent. The protocol:
A structure of the dye is shown in the following formula, and hue and maximum absorption wavelength (λmax) are shown in Table. 1.
A structure of each salt-forming type dye is shown in the following formula, respectively. 1. [drawing 5]
Rhodamine 6 GCP (C.I. Basic Red) (140 parts, 0.3 mols) as a cation component was dissolved in water with stirring to prepare a 3% aqueous solution, which was then filtered. Thereafter, this solution (pH 2 to 4) was added dropwise to the dyestuff solution over 50 minutes, followed by stirring at 40° to 50° C. for 3 hours. The solution was heated to 65° C. to form a grit, followed by filtration, rinsing and further drying to obtain 200 parts of a powdered red salt-forming type dye (dye 4) having a structure of the following formula. It was confirmed that the resulting dye is a salt-forming type dye having n (2<n<3). 1. [drawing 6]
It was confirmed that the resulting dye has a structure of the following formula. 1. [drawing 7]
It was confirmed that the resulting dye has a structure of the following formula. 1. [drawing 8]

Regarding `Cc1nn(-c2ccccc2)c(O)c1N=Nc1ccc(-c2ccc(N=Nc3c(C)nn(-c4ccccc4)c3O)cc2S(=O)(=O)O)c(S(=O)(=O)O)c1` [dye 7], the “Salt-forming type dye λmax (maximum absorption wavelength)” value (“Salt-forming type dye λmax” below) (listed as Comp. Ex. 1) is reported as 422 nm.
For `Cc1nn(-c2ccccc2)c(O)c1N=Nc1ccc(-c2ccc(N=Nc3c(C)nn(-c4ccccc4)c3O)cc2S(=O)(=O)O)c(S(=O)(=O)O)c1` [dye 8], under “listed as Comp. Ex. 2”, the “Salt-forming type dye λmax” value stood at 422 nm.
With `Cc1nn(-c2ccccc2)c(O)c1N=Nc1ccc(-c2ccc(N=Nc3c(C)nn(-c4ccccc4)c3O)cc2S(=O)(=O)O)c(S(=O)(=O)O)c1` [dye 9], the “Salt-forming type dye λmax” value (listed as Comp. Ex. 3) stood at 525 nm.
With `Cc1nn(-c2ccccc2)c(O)c1N=Nc1ccc(-c2ccc(N=Nc3c(C)nn(-c4ccccc4)c3O)cc2S(=O)(=O)O)c(S(=O)(=O)O)c1` [dye 10], under “listed as Comp. Ex. 4”, the “Salt-forming type dye λmax” value is 578 nm.
